In publication PMC8774657, “Peptide-Mucin Binding and Biosimilar Mucus-Permeating Properties” (Gels, 2021):
Where a SMILES comes first, the peptide text is derived from it. Where no end group is shown, it is not given here.

Test: Biosimilar mucus-permeating assay, in vitro cell-free model
Format: in vitro ADME
Details: peptide 1 mM, OPA method; for Mucus permeability (in words): cell-free biosimilar mucus model, PBS pH 7.2, 25 ℃, verbal grade; for Final cumulative mucus permeability at 240 min / Cumulative mucus permeability at 60 min: cell-free, biosimilar mucus (0.3% PAA, 5% mucin, 3.1% BSA, 0.6% lipid mixture, Tween 80) on 10 KDa centrifugal filter, 1 mL, PBS pH 7.2, 470× g, 25 ℃, mean ± SEM, at least three times in triplicate
Protocol: An in vitro cell-free model was established in this study for the quantification of mucus-permeating property of peptides. Biosimilar mucus used in the model consisted of 0.3% (w/v) PAA, 5% (w/v) mucin, 3.1% (w/v) BSA, 0.6% (w/v) lipid mixture including 0.06% (w/v) linoleic acid, 0.36% (w/v) cholesterol, 0.18% (w/v) phosphatidylcholine, and Tween 80 (25% of lipid mixture, w/w). First, the lipid was mixed with Tween 80, whereafter PBS buffer with 150 mM NaCl (5 mM, pH 7.2) was slowly added under magnetic stirring (Cimarec, ThermoFisher Scientific, Waltham, MA USA). On the other hand, PAA was dissolved in PBS buffer prior to the addition of mucin under stirring, and pH adjusted to 7.0 using NaOH (1 M). After mixing the lipids and mucin suspension, BSA was added to finalize the biosimilar mucus and the pH was adjusted to 7.4. The mucus mixture was stored overnight at 4 ℃ before dialyzing (Fisherbrand Regenerated Cellulose Dialysis Tubing, MWCOs from 3500 to 14,000 Daltons) for 72 h against PBS buffer (5 mM, pH 7.2) containing 150 mM NaCl to remove unbound lipids and contaminating proteins from BSA. Mucus-permeating assay was conducted by firstly adding 3.8 mL of dialyzed mucus suspensions to the filter of the centrifugal unit (4 mL, 10 KDa cutoff, Amicon Ultra, Millipore Sigma) followed by centrifugation at 2935× g for 15 min to make the mucus settle down and completely cover the entire membrane before adding peptide solutions (1 mM, 1 mL) or 1 mL of PBS buffer as blank. Afterwards, the permeate during centrifugation at 25 ℃ and 470× g was collected every 15 min for 4 h. The peptide content in the permeate was measured using the OPA method. The mucus permeability of the peptides was quantified using Equation (2). (2) P=np−nb/nT×100 PP is the percentage permeability, np represents the permeated peptides (µmol), nb is the blank (µmol), and nT is the total loaded peptide amount (µmol).

| Molecule | Mucus permeability (in words) | Final cumulative mucus permeability at 240 min | Cumulative mucus permeability at 60 min |
| --- | --- | --- | --- |
| CSCC[C@H](N)C(=O)N[C@@H](C)C(=O)N[C@@H](CC(N)=O)C(=O)N[C@H](C(=O)O)[C@@H](C)O [Pep2, MANT] (H-MANT-OH) | low mucus permeability | 21 ± 5% | – |
| CSCC[C@H](NC(=O)[C@@H](N)Cc1ccc(O)cc1)C(=O)N[C@@H](CO)C(=O)N[C@H](C(=O)O)C(C)C [Pep3, YMSV] (H-YMSV-OH) | low mucus permeability | 44 ± 12% | – |
| KIPAVF [Pep1, KIPAVF] | low mucus permeability | 23 ± 6% | – |

Results, then the molecule that gave them:

| Mucus permeability (in words) | Final cumulative mucus permeability at 240 min | Cumulative mucus permeability at 60 min | Molecule |
| --- | --- | --- | --- |
| high mucus permeability | 92 ± 27% | 40 ± 17% | CC(C)C[C@H](NC(=O)[C@H](CO)NC(=O)[C@H](C)NC(=O)[C@@H]1CCCN1)C(=O)O [Pep6, PASL] (H-PASL-OH) |
| low mucus permeability | 13 ± 2% | – | CSCC[C@H](NC(=O)[C@@H](N)CCCCN)C(=O)N1CCC[C@H]1C(=O)N[C@H](C(=O)O)C(C)C [Pep5, KMPV] (H-KMPV-OH) |
| high mucus permeability | 142 ± 35% | 96 ± 30% | C[C@@H](O)[C@H](N)C(=O)N[C@@H](CC(N)=O)C(=O)NCC(=O)N[C@@H](CCC(N)=O)C(=O)O [Pep4, TNGQ] (H-TNGQ-OH) |
| low mucus permeability | 51 ± 9% | – | QIGLF [Pep7, QIGLF] |
